Five compounds from patent US4661483A, “Antihypercholesterolemic lactone compounds, compositions and use” (Merck & Co., Inc., priority 1986, dated 1987) can be followed below.

This test concerns HMG-CoA reductase. In words: HMG-CoA Reductase Inhibition Assay (in vitro, [14C]HMG-CoA to mevalonolactone). Type of test: biochemical. Conditions: IC50 compared with that of compactin determined simultaneously; compactin assigned 100 (footnote b60 prints 10); tested as sodium salt of dihydroxy acid form; solubilized rat liver microsomal enzyme. On the procedure:
The intrinsic HMG-CoA reductase inhibition activity of the claimed compounds is measured in the in vitro protocol published in J. Med. Chem., 28, p. 347-358 (1985) and described below:
Isolation of HMG-CoA Reductase
Male Holtzman Sprague-Dawley rats (225-250 g) were kept on reversed lighting and fed Purina rat chow containing 3% cholestyramine for 7 days preceding their sacrifice by CO2 asphyxiation. Livers were removed 6 hours into the dark cycle and used immediately to prepare microsomes. HMG-CoA reductase was solubilized from the freshly prepared microsome by the method of Heller and Shrewsbury [J. Biol. Chem., 1976, 251, 3815] and purified through the second ammonium sulfate precipitation step as described by Kleinsek et al. [Proc. Natl. Acad. Sci. USA, 1977, 74, 1431]. The enzyme preparation was tested for HMG-CoA reductase potency and diluted with 100 mM phosphate buffer (pH 7.2) so that 100 μl of the enzyme solution, when added to the assay control, gave a value of 50,000-60,000 dpm. The enzyme preparation was stored at -80° C.
HMG-CoA Reductase Inhibition Assay
The assay is essentially the procedure of Shefer et al. [J. Lipid Res., 1972, 13, 402]. The complete assay medium contained the following in a total volume of 0.8 ml: phosphate buffer, pH 7.2, 100 mM; MgCl2, 3 mM; NADP, 3 mM; glucose 6-phosphate, 10 mM; glucose-6-phosphate dehydrogenase, 3 enzyme units; reduced glutathione, 50 mM; HMG-CoA (glutaryl-3-^14 C, New England Nuclear), 0.2 mM (0.1 μCi); and partially purified enzyme stock solution, 100 μL.
Test compounds or compactin (after first being converted to the sodium salt of their dihydroxy acid form in situ by addition of 1N NaOH (1 equivalent) were added to the assay system in 10-μL volumes at multiconcentration levels. After a 40-minute incubation at 37° C. with shaking and exposure to air, the reaction was stopped by the addition of 0.4 mL of 8N HCl. After an additional 30-minute incubation period at 37° C. to ensure the complete lactonization of mevalonic acid to mevalonolactone, 0.2 ml of the mixture was added to an 0.5×5.0 cm column containing 100-200 mesh Bio-Rex 5, chloride form (Bio-Rad), wetted with distilled water, as described by Alberts et al. [J. Proc. Natl. Acad. Sci. U.S.A., 1980, 77, 3957]. The unreacted [^14 C]HMG-CoA was absorbed on the resin and the [^14 C]mevalonolactone was eluted with distilled water (2×1 ml) directly into 7-ml scintillation vials. Five milliliters of Aquasol-2 (New England Nuclear) was added to each vial, and radioactivity was measured in a Packard Tri Carb Prias scintillation counter. IC50 values were determined by plotting percentage inhibition against test compound concentration and fitting a straight line to the resulting data by using the least-squares method. For estimation of relative inhibitory potencies, compactin was assigned a value of 100 and the IC50 value of the test compound was compared with that of compactin determined simultaneously.
A general note: Microsomes from liver hold many membrane-bound enzymes, among them those of drug oxidation.
`CCN(CC)C(=O)C(C)(C)C(=O)OC1CC(C)C=C2C=CC(C)C(CCC(O)CC(O)CC(=O)O)C21` (centres unmarked): the “Relative Potency” value amounted to 22.

`CC1C=C2C=CC(C)C(CCC(O)CC(O)CC(=O)O)C2C(OC(=O)C(C)(C)C(=O)N2CCOCC2)C1` (centres unmarked): the “Relative Potency” value stood at 20.

As to `CC1C=C2C=CC(C)C(CCC(O)CC(O)CC(=O)O)C2C(OC(=O)C(C)(C)CC(=O)N(C)C)C1` (centres unmarked), the “Relative Potency” value was found to be 16.

Consider `CC1C=C2C=CC(C)C(CCC(O)CC(O)CC(=O)O)C2C(OC(=O)C(C)(C)C(=O)N(C)C)C1` (centres unmarked), for which the “Relative Potency” value was 34.

Take `CNC(=O)C(C)(C)C(=O)OC1CC(C)C=C2C=CC(C)C(CCC(O)CC(O)CC(=O)O)C21` (centres unmarked): the “Relative Potency” value was determined as 13.
